“And” between values parts separate entries of the source, which are not always exact repeats. Equal entries are not always repeated.
Key:
[1] = Stability test (storage stability after preservation); assay type: physicochemical; details: preservation at 40° C. for six months; for change in powder X-ray diffraction pattern after preservation (storage stability): hydrochloride
Protocol: Crystal I, Crystal III, and Crystal II of tipiracil hydrochloride obtained in accordance with Example 1, Example 2, and Reference Example 1 respectively were tested for storage stability after preservation at a temperature of 40° C. for six months.

[2] = Test for measurement of electric charge amount by air transfer; assay type: physicochemical; details: for Amount of electric charge per unit mass, average value: average of 3 measurements; for Amount of electric charge per unit mass, average value / Amount of electric charge / Amount of electric charge per unit mass: air transfer 130 L/min, SUS electrifying tube, hydrochloride; for Amount of electric charge / Amount of electric charge per unit mass: individual measurements No. 1-3; for polarity of charge: relative to SUS membrane
Protocol: Electric charge amounts of Crystal I and Crystal III obtained in accordance with Example 1 and Example 2 respectively were measured by air transfer. Crystal I or Crystal III was put in a powder supply part of an electrifying tube (made of SUS, 24.6×500 mm), and was left for 10 minutes. The sample was transferred by air at a flow rate of 130 L/min and the electric charge amount was calculated from the current value at that time obtained from the electrifying tube. ? =−∫0^tIdt Q: Amount of electric charge [C] I: Current generated during measurement [A] t: Measuring time […]
The measurement was performed 5 times, of which 3 times that gave stable results were adopted. The average of the values of the 3 times was regarded as the measured value.

Structure (SMILES)	amounts of analogous substances after preservation [1]	change in powder X-ray diffraction pattern after preservation (storage stability) [1]	Amount of electric charge per unit mass, average value [2]	Amount of electric charge [2]	Amount of electric charge per unit mass [2]	polarity of charge [2]	charge relative to Crystal I ([2]; comparison of Table 2 and Table 3)
Cl.N=C1CCCN1Cc1[nH]c(=O)[nH]c(=O)c1Cl [Crystal I, 5-chloro-6-(2-iminopyrrolidin-1-yl)methyl-2,4(1H,3H)-pyrimidinedione hydrochloride]	small and not increased	no change	1.0 × 10^−7 C/g	5.3 × 10^−8 C and 5.0 × 10^−8 C	1.1 × 10^−7 C/g and 9.7 × 10^−8 C/g and 9.8 × 10^−8 C/g	(positively-charged	
Cl.N=C1CCCN1Cc1[nH]c(=O)[nH]c(=O)c1Cl [Crystal II, 5-chloro-6-(2-iminopyrrolidin-1-yl)methyl-2,4(1H,3H)-pyrimidinedione hydrochloride]		not the same					
Cl.N=C1CCCN1Cc1[nH]c(=O)[nH]c(=O)c1Cl [Crystal III, 5-chloro-6-(2-iminopyrrolidin-1-yl)methyl-2,4(1H,3H)-pyrimidinedione hydrochloride]	small and not increased	no change	3.5 × 10^−7 C/g	2.0 × 10^−7 C and 2.1 × 10^−7 C and 1.8 × 10^−7 C	3.2 × 10^−7 C/g (2×) and 4.2 × 10^−7 C/g	(positively-charged	three times as much charge as Crystal I
